Experimental data published in patent US20110212899A1, “Corneal Neuritogenesis Promoter Containing Pacap and Its Derivative” (priority 2004, published 2011).
Where no end group is shown, it is not given here.

System: rabbit eye (tear secretion)
Test: Promoting effect on tear secretion in a rabbit (Schirmer method, Test Example 6)
Assay type: in vivo
Conditions: 0.1% eye drops, 50 μL; from 20 minutes to 120 minutes after administration
Description: Changes in the tear amount when PACAP27 and peptide 24 were administered to the eyes of a rabbit were examined. Japanese white rabbits with a body weight of 1.5 to 2.0 kg purchased from Kitayama Labes Co., Ltd were used. The animals were each put in separate cages placed in a room wherein a temperature of 23±3° C. and a humidity of 55±10% were kept and a light was on for 12 hours per day (lighting at 8:00 and lights-out at 20:00), and raised after arrival until the final day of the test. The animals were given 100 g of solid feed (Labo R Stock, Nosan Corporation) per day, and could freely have tap water. PACAP27 and peptide 24 were used as test substances. […] The amount of tear secreted was measured at 8.5 minutes before administration, and at 10 minutes, 20 minutes, 30 minutes, 60 minutes and 120 minutes after the administration by a Schirmer method. […] After the tear in the lower eyelid conjunctival sac was wiped with filter paper, the amount of tear secreted in 1 minute was measured using a Schirmer's test strip (Showa Yakuhin Kako Co.). The difference between the tear secretion amount at each time point after administration of the eye drops and the tear secretion amount before administration of the eye drops was calculated as a change in the tear amount caused by the test substance. […]

His-Ser-Asp-Ala-Ile-Phe-Thr-Asp-Ser-Tyr-Ser-Arg-Tyr-Arg-Arg-Gln-Leu-Ala-Val-Arg-Arg-Tyr-Leu-Ala-Ala-Val-Leu-Gly-Arg-Arg-NH2 (HSDAIFTDSYSRYRRQLAVRRYLAAVLGRR-NH2) [Peptide 24]
tear secretion amount compared with vehicle solution-administration group: significant increase
